≈ marks a conversion by molar mass, not a printed value. Like-named read-outs stand apart in the source and are kept apart here.
Tests used:
[1] = tested on: P. aeruginosa 27853; experiment: MIC assay, liquid medium microdilution (planktonic growth); format: cell-based, Pseudomonas aeruginosa
Method: (§1) The antibacterial assays were performed on Gram-negative (Escherichia coli ATCC 25922, E. coli 5, Pseudomonas aeruginosa ATCC 27853, P. aeruginosa ATCC 9027) and Gram-positive (Staphylococcus aureus ATCC 25923, S. aureus ATCC 6538, MRSA (Meticillin-resistant S. aureus) 388, ATCC, American Type Culture Collection) bacterial strains. Microbial suspensions (1.5 × 10^8 CFU/mL; colony forming units (CFU)) corresponding to 0.5 McFarland density obtained from 15 to 18-h bacterial cultures developed on solid media were used. The antimicrobial activity was tested on Mueller–Hinton agar medium.
(§2) The quantitative assay of the antimicrobial activity was performed by the liquid medium microdilution method, in 96-well multi-well plates, to establish the minimal inhibitory concentration (MIC). For this purpose, serial two-fold dilutions of the compounds ranging between 1.000 and 1.95 μg/mL were performed in a 200 μL volume of broth and each well was seeded with 50 μL microbial inoculums. Sterility control (wells containing only culture medium) and culture controls (wells containing culture medium seeded with the microbial inoculum) were used. The influence of the DMSO solvent was also quantified in a series of wells containing DMSO, diluted accordingly with the dilution scheme used for the complexes. The plates were incubated for 24 h at 37 °C, and MIC values were considered as the lowest concentration of the tested compound that inhibited the visible growth of the microbial overnight cultures.

[2] = tested on: P. aeruginosa 9027; experiment: as above; format: cell-based, Pseudomonas aeruginosa
Method: as §1, §2

[3] = tested on: P. aeruginosa 27853; experiment: MBEC assay, micro-titer method (biofilm); format: cell-based, Pseudomonas aeruginosa
Method: as §1
(§3) The assessment of the complexes’ influence on the microbial ability to colonize an inert substratum with the establishment of the minimal biofilm eradication concentration (MBEC) was performed by the micro-titer method, following previously described protocols. The absorbance at 490 nm was measured with an Apollo LB 911ELISA (Berthold Technologies GmbH & Co. KG, Waltham, MA, USA) reader. All experiments were performed in triplicates.

[4] = tested on: P. aeruginosa 9027; experiment: MBEC assay, micro-titer method (biofilm); format: cell-based, Pseudomonas aeruginosa
Method: as §1, §3

[5] = tested on: S. aureus 6538; experiment: MBEC assay, micro-titer method (biofilm); format: cell-based, Staphylococcus aureus
Method: as §1, §3

[6] = tested on: S. aureus 25923; experiment: MBEC assay, micro-titer method (biofilm); format: cell-based, Staphylococcus aureus
Method: as §1, §3

[7] = tested on: MRSA; experiment: MBEC assay, micro-titer method (biofilm); format: cell-based, Staphylococcus aureus
Method: as §1, §3

[8] = tested on: E. coli 25922; experiment: MIC assay, liquid medium microdilution (planktonic growth); format: cell-based, Escherichia coli
Method: as §1, §2

[9] = tested on: E. coli 5 ESBL; experiment: as above; format: cell-based, Escherichia coli
Method: as §1, §2

[10] = tested on: S. aureus 6538; experiment: as above; format: cell-based, Staphylococcus aureus
Method: as §1, §2

[11] = tested on: S. aureus 25923; experiment: as above; format: cell-based, Staphylococcus aureus
Method: as §1, §2

[12] = tested on: MRSA; experiment: as above; format: cell-based, Staphylococcus aureus
Method: as §1, §2

[13] = tested on: E. coli 25922; experiment: MBEC assay, micro-titer method (biofilm); format: cell-based, Escherichia coli
Method: as §1, §3

[14] = tested on: E. coli 5 ESBL; experiment: MBEC assay, micro-titer method (biofilm); format: cell-based, Escherichia coli
Method: as §1, §3

[15] = tested on: human colon adenocarcinoma (HT 29) cell; set-up: method as in doi:10.1007/s10973-016-5425-7; conditions: cited from earlier work
[16] = Hemolytic activity (adapted ASTM F 756-00); format: cell-based; conditions: human red blood cells, 4 h at 37 °C, threshold 5% (ASTM F 756-00)
Method: The hemolytic activity of the compounds was determined using an adapted protocol of ASTM F 756–00 standard based on hemoglobin release from human red blood cells (hRBCs) resulting after cell lyses. Briefly, the blood samples were collected from healthy volunteers, diluted to a concentration of hemoglobin ~10 mg/mL with phosphate buffer saline (PBS) and then incubated with various concentrations of compounds for 4 h at 37 °C. After 4 h, the cells were centrifuged, the supernatant was collected, transferred into 96-well tissue culture plates and mixed with Drabkin reagent, which converts hemoglobin to cyanmethemoglobin (absorption peak at 540 nm). After 15 min, the absorbance of the samples was read at 570 nm using a plate reader. The obtained data was background corrected and used to calculate the hemolytic index as percentage of the hemoglobin released after the treatment with the tested compounds, relative to control samples. The hRBCs in PBS and distilled water were used as negative and positive controls.

[17] = tested on: BJ cells; experiment: Phalloidin staining and cell imaging (cytoskeleton, nucleus); format: cell-based, Human; conditions: 24 h, 6 μg/mL
Method: (§4) Cytoskeleton actin filaments of BJ and B16 cells were stained with phalloidin-FITC (Sigma-Aldrich, USA) according to the manufacturer’s protocol. Briefly, cells were washed with PBS (5 min, 3 times), fixed for 5 min with 3% paraformaldehyde, washed three times with PBS, permeabilized with 0.1% Triton X-100 in PBS for 15 min, washed three times with PBS, stained with 20 μg mL^−1 phalloidin-FITC at room temperature for 1 h and washed again three times with PBS. Cell nucleus was stained with 8 μM of Hoechst 33342 solution for 10 min, washed three times with PBS and finally, mounted and sealed on glass slides with FluorSave™ Reagent (Merck Millipore, Germany). The fluorescence images were acquired using an Andor DSD2 Confocal Unit (Andor, Ireland), mounted on an epifluorescence microscope, Olympus BX-51 (Olympus, Germany), equipped with a 40x and 100x objective and an appropriate DAPI/Hoechst filter cube (excitation filter 390/40 m, dichroic mirror 405 nm and emission filter 452/45 nm) and GFP/FITC filter cube (excitation filter 466/40 nm, dichroic mirror 488 nm and emission filter 525/54 nm).

[18] = tested on: B16 (melanoma) tumor cells; experiment: MTT cell viability assay; format: cell-based, Mouse; conditions: any tested concentration (0–25 μg/mL), 24 and 48 h
Method: (§5) The cytotoxicity of ligand and copper(II) complexes was tested on normal BJ cell as well as on B16 (melanoma) tumor cells, which were grown for 48 h in culture medium containing the tested complexes in 0–25 μg/mL concentration range.
(§6) Human fibroblast cells (BJ-ATCC CRL-2522, Manassas, VA, USA) were grown in minimal essential medium (MEM) supplemented with 2 mM L-Glutamine, 10% fetal calf serum (FCS), 100 units/mL of penicillin and 100 µg/mL of streptomycin at 37 °C in a humidified incubator under an atmosphere containing 5% CO2. Mouse melanoma cells (B16-ATCC CRL-6475, Manassas, VA, USA) were grown in DMEM (Dulbecco’s Modified Eagle Medium) supplemented with similar reagents as MEM. All cell cultivation media and reagents were purchased from Biochrom AG (Berlin, Germany) and Sigma-Aldrich (Darmstadt, Germany).
(§7) Cell viability was evaluated using 3-(4,5-dimethylthiazol-2-yl)-2,5-diphenyltetrazolium bromide (MTT) assay, as described previously. First, the cells were seeded in 96-well plates (20,000 cells/well) and cultured for 24 h in medium. After overnight incubation, the medium was changed and the investigated sample in concentration varying from […] was added for 24 h. The negative control was represented by cells cultivated in medium without the investigated compounds. Following incubation, the medium was changed and the MTT solution was added to each well to a final concentration of 1 mg/mL and incubated for additional 4 h, at 37 °C. Finally, the medium was collected and DMSO was used to dissolve the insoluble formazan product. The absorbance of the samples was recorded at 570 nm using a plate reader Mithras 940 (Berthold). The data were corrected for the background and the percentage of viable cells was obtained using the equation:Cell viability = [(A570 of treated cells)/(A570 of untreated cells)] × 100%
(§8) The half-maximal inhibitory concentration (IC50) was determined by fitting the data with a logistical sigmoidal equation using the software Origin 8.1 from Microcal Inc. (Los Angeles, CA, USA).

[19] = tested on: B16 cells; experiment: Phalloidin staining and cell imaging (cytoskeleton, nucleus); format: cell-based, Mouse; conditions: 24 h, 6 μg/mL
Method: as §4

[20] = tested on: normal BJ cell (human fibroblast); experiment: MTT cell viability assay; format: cell-based; conditions: any tested concentration (0–25 μg/mL), 24 and 48 h
Method: as §5, §6, §7, §8

[21] = P. aeruginosa 27853, 24 h at 37 °C
[22] = P. aeruginosa 9027 (multi-drug-resistant), 24 h at 37 °C
[23] = Pseudomonas aeruginosa, P. aeruginosa 27853, 24 h at 37 °C, read-out: MIC
[24] = Pseudomonas aeruginosa, P. aeruginosa 9027 (multi-drug-resistant), 24 h at 37 °C, read-out: MIC
[25] = Escherichia coli, E. coli 25922, 24 h at 37 °C, read-out: MIC
[26] = Escherichia coli, E. coli 5 ESBL, 24 h at 37 °C, read-out: MIC
[27] = Staphylococcus aureus, S. aureus 6538, 24 h at 37 °C, read-out: MIC
[28] = Staphylococcus aureus, S. aureus 25923, 24 h at 37 °C, read-out: MIC
[29] = Staphylococcus aureus, 24 h at 37 °C, read-out: MIC

Molecule	MIC [1, 21] [mM]	MIC [2, 22] [mM]	MBEC value [3] [mM]	MBEC value [4] [mM]	MBEC value [5] [mM]	MBEC value [6] [mM]	MBEC value [7] [mM]	MIC ([8]; E. coli 25922, 24 h at 37 °C) [mM]	MIC ([9]; E. coli 5 ESBL, 24 h at 37 °C) [mM]	MIC ([10]; S. aureus 6538, 24 h at 37 °C) [mM]	MIC ([11]; S. aureus 25923, 24 h at 37 °C) [mM]	MIC ([12]; 24 h at 37 °C) [mM]	MBEC value [13] [mM]	MBEC value [14] [mM]	MIC [1, 23] [mM]	MIC [2, 24] [mM]	MIC [8, 25] [mM]	MIC [9, 26] [mM]	MIC [10, 27] [mM]	MIC [11, 28] [mM]	further results
O.[Cu+2].[O-][Cl+3]([O-])([O-])[O-].[O-][Cl+3]([O-])([O-])[O-].c1cnc2c(c1)ccc1cccnc12.c1cnc2c(c1)ccc1cccnc12 [CuPP, [Cu(phen)2(OH2)](ClO4)2]	0.50	0.50	0.50	0.50	0.03	0.03	0.10	0.03	0.03	0.03	0.03	0.12	0.10	0.30							
CC(=O)[O-].CC(=O)[O-].Cc1cc(-c2ccccc2)nc2ncnn12.[Cu+2] [[Cu(pmtp)(CH3COO)2]·0.5H2O]																					Antiproliferative effect [15]: dose-dependent antiproliferative effect
c1ccc(-c2ccccn2)nc1 [bpy, 2,2′-bipyridine]			8.00	4.00	8.00	4.00	8.00						8.00	8.00							MIC ([1]; Pseudomonas aeruginosa, 27853, 24 h): 8 mM (≈ 1250 µg/mL); MIC ([2]; Pseudomonas aeruginosa, 9027, 24 h): 4 mM (≈ 625 µg/mL); MIC ([8]; Escherichia coli, 25922, 24 h): 4 mM (≈ 625 µg/mL); MIC ([9]; Escherichia coli, 5ESBL, 24 h): 4 mM (≈ 625 µg/mL); MIC ([10]; Staphylococcus aureus, 6538, 24 h): 8 mM (≈ 1250 µg/mL); MIC ([11]; Staphylococcus aureus, 25923, 24 h): 8 mM (≈ 1250 µg/mL); MIC ([12]; Staphylococcus aureus, 24 h): 8 mM (≈ 1250 µg/mL)
c1cnc2c(c1)ccc1cccnc12 [phen, 1,10-phenanthroline]			7.00	3.50	7.00	7.00	7.00						7.00	3.50	7 (≈ 1260 µg/mL)	3.5 (≈ 631 µg/mL)	3.5 (≈ 631 µg/mL)	3.5 (≈ 631 µg/mL)	7 (≈ 1260 µg/mL)	7 (≈ 1260 µg/mL)	MIC [12, 29]: 7 mM (≈ 1260 µg/mL)
Cc1cc(-c2ccccc2)nc2ncnn12 [pmtp, 5-phenyl-7-methyl-1,2,4-triazolo[1,5-a]pyrimidine]			3.00	1.50	3.00	6.00	6.00						6.00	3.00	3 (≈ 631 µg/mL)	3 (≈ 631 µg/mL)	3 (≈ 631 µg/mL)	3 (≈ 631 µg/mL)	3 (≈ 631 µg/mL)	6 (≈ 1260 µg/mL)	hemolysis at 4 h, 25 µg/mL [16]: 0.61 ± 0.05%; Cell morphology (cytoskeleton and nucleus) [17]: does not alter its morphology; Effect on viability of B16 cells [18]: did not affect the viability of the two cell lines; Cell morphology (cytoskeleton and nucleus) [19]: does not alter the morphology of the cells; Effect on viability of BJ cells [20]: did not affect the viability of the two cell lines; MIC [12, 29]: 6 mM (≈ 1260 µg/mL)
{[Cu(bpy)2(μ2OClO3)]·ClO4}n [CuBP]	1.09	1.09	1.09	1.09	0.14	0.14	0.27	0.54	0.54	0.27	0.27	0.27	0.54	0.54							

Source: paper PMC7504215, “Copper(II) Complexes with Mixed Heterocycle Ligands as Promising Antibacterial and Antitumor Species” (Molecules, 2020)
